Reference: patent publication US10179355B2, “Bioremediation enhancing agents and methods of use” (JRW BIOREMEDIATION, LLC, priority 2007, dated 2019)

Test system: dechlorinating bacteria known to convert PCE to ethene
Assay: Set B: Erythorbate ML with and without YM2, PCE dechlorination microcosms (kinetics, Relative Rate)
Assay type: cell-based, Dehalococcoides and Dehalobacter spp.
Excerpt: Certain contaminated materials (or sites) may contain indigenous microbial communities that are sufficient for complete bioremediation of contaminants. For such sites, there is no need to add microbes unless the indigenous microbes are genetically deficient in achieving the desired clean-up goals. For those sites that are microbiologically limited, microorganisms may be added to the contaminated materials (or sites). In one embodiment, the inoculum may be a mixed culture of halo-respiring bacteria that have been enriched to reach an optimal cell density. These mixed cultures of halo-respiring bacteria may be typically obtained from sediment samples from rivers, streams or any waterways. More specifically, the inoculum used in the Examples was originated from a Sangamon River sediment sample (Lodge Park, Piatt County, Ill.) See, e.g., Brennan, R. A., Sanford, R. A. and Werth, C. J. (2006). “Biodegradation of Tetrachloroethene by Chitin Fermentation Products in a Continuous Flow Column System.” Journal of Environ. Engr., June 665-673. This culture had grown for several years on PCE, anaerobic basal salts medium, Wolfe's vitamin solution and various electron donors including lactate (1-2 millimolar (mM)), formate (4 mM) and chitin using the Volatile Interface Transfer Apparatus (VITA) reactor system at the University of Illinois. Brennan, R. A., and Sanford, R. A. (2002). “Continuous steady-state method using Tenax for delivering tetrachloroethene to chlororespiring bacteria.” Appl. Environ. Microbiol., 68(3), 1464-1467. […] Using 16S rRNA gene-specific primers, both Dehalococcoides and Dehalobacter spp. were detected. Quantitative real-time PCR has been used to determine that approximately 1.65×10^7 Dehalococcoides gene copies were present per ml of culture.
For purpose of this disclosure, each bottle may be started with a certain amount of PCE. At subsequent times each bottle may be sampled for the degradation daughter products of PCE, namely trichloroethene (TCE), cis-dichloroethene (DCE), vinyl chloride (VC) and ethene, etc. Trans-DCE and 1,1-DCE are also daughter products of PCE, but they may not be detectable under the conditions disclosed here.
The rate of degradation may be determined by calculating the number of pmoles of chloride ions removed from PCE and subsequently from the amounts of the daughter products generated. The calculation may be performed as follows: Chloride (μmoles)=[…]−4×PCE (μmoles)−3×TCE (pmoles)−2×DCE (μmoles)−VC (μmoles)
Next, the dechlorination rate may be determined for each bottle at each time by dividing the Chloride generated by the time (days). The data may be then normalized to the lactate control by taking the ratio of Chloride Rate (pmoles/day) and the Lactate Control Chloride Rate (pmoles/day). This ratio is called Relative Rate and is dimensionless.
As shown in the Examples, a paired t-test has been conducted to calculate the probability that the Relative Rate of one group (i.e. with Nutrient) is greater than the other group (i.e. without Nutrient). The null hypothesis is that the underlying means of the two paired groups are equal. The Probability that one group has higher Relative Rates than the other group is shown in various tables in the Examples.
The following components were used in the system for bioremediating contaminated ground water microcosms in Examples 2-8: • 160 milliliter (ml) stoppered serum bottles • 100 ml of anaerobic culture medium, groundwater containing an excess of bioavailable phosphorus and nitrogen at 0.5 mM Phosphate and 1 mM ammonium degassed with a nitrogen sparge • Nominally 1 gram of limestone • 19.54 micromoles (pmoles) Perchloroethene (PCE) • An excess of various electron donors were utilized • 3 ml of inoculum containing dechlorinating bacteria known to convert PCE to ethene.
The second set of microcosms used Erythorbate ML as the electron donor at 1020 mg/L initial concentration. […]

For `CC(O)C(=O)[O-].[Na+]` (stereo not shown) [Lactate Control, sodium lactate], the “Cl^− Rate ± s.d.” value (0 days) was 0.00 ± 0.00 µmol, the “Cl^− ± s.d.” value (0 days) was 0.00 ± 0.00 µmol and the “DCE ± s.d.” value (0 days) was 0.00 ± 0.00 µmol. The “Ethene ± s.d.” value (0 days) was 0.00 ± 0.00 µmol, the “PCE ± s.d.” value (0 days) was 19.54 ± 0.00 µmol and the “TCE ± s.d.” value (0 days) was 0.00 ± 0.00 µmol. For the same compound, the “VC ± s.d.” value (0 days) was 0.00 ± 0.00 µmol, the “Cl^− Rate ± s.d.” value (21 days) was 1.61 ± 0.14 µmol and the “Cl^− ± s.d.” value (21 days) was 33.88 ± 2.96 µmol. The “DCE ± s.d.” value (21 days) was 0.83 ± 0.07 µmol, the “Ethene ± s.d.” value (21 days) was 0.29 ± 0.08 µmol and the “PCE ± s.d.” value (21 days) was 7.22 ± 0.85 µmol. The “TCE ± s.d.” value (21 days) was 3.15 ± 0.11 µmol, the “VC ± s.d.” value (21 days) was 4.28 ± 0.44 µmol and the “Cl^− Rate ± s.d.” value (35 days) was 1.11 ± 0.12 µmol. For the same compound, the “Cl^− ± s.d.” value (35 days) was 39.00 ± 4.35 µmol, the “DCE ± s.d.” value (35 days) was 2.57 ± 0.34 µmol and the “Ethene ± s.d.” value (35 days) was 0.53 ± 0.12 µmol. The “PCE ± s.d.” value (35 days) was 3.58 ± 0.90 µmol, the “TCE ± s.d.” value (35 days) was 3.77 ± 0.18 µmol and the “VC ± s.d.” value (35 days) was 8.37 ± 0.37 µmol. For the same compound, the “Cl^− Rate ± s.d.” value (49 days) was 1.05 ± 0.04 µmol, the “Cl^− ± s.d.” value (49 days) was 51.67 ± 1.97 µmol and the “DCE ± s.d.” value (49 days) was 1.31 ± 0.95 µmol. The “Ethene ± s.d.” value (49 days) was 1.05 ± 0.22 µmol, the “PCE ± s.d.” value (49 days) was 0.04 ± 0.01 µmol and the “TCE ± s.d.” value (49 days) was 0.10 ± 0.03 µmol. The “VC ± s.d.” value (49 days) was 23.41 ± 0.34 µmol.
